Results reported in patent US20240075123A1, “TREATMENT OF CANCERS AND INFECTIOUS DISEASES WITH KILLED INTACT BACTERIA” (priority 2022, published 2024).

Key:
[1] = system: Pan02 pancreatic carcinoma; test: Intrasplenic Pan02 pancreatic carcinoma, first experiment; format: in vivo; conditions: Decoy 5×10^7 and 2×10^8 per mouse; gemcitabine 50 mg/kg i.p.
From the text: Pancreatic tumor cells were surgically implanted (injected) into the spleen of C57BL/6 female mice on Day 0. […] A group of untreated animals was used as the control. All untreated animals developed large tumors in the spleen, liver and pancreas, requiring termination around Day 30.

[2] = system: Pan02 pancreatic carcinoma; test: Intrasplenic Pan02 pancreatic carcinoma, second experiment; format: in vivo, mouse; conditions: single agents
From the text: A group of animals administered Decoy vehicle was used as the control.

[3] = system: H22 hepatocellular carcinoma; conditions: mouse, in vivo
Protocol: Indomethacin was tested at 10 μg/mL in drinking water, p.o. ad libitum daily for either 4 or 7 weeks. […] Treatment was started when the average tumor size was 123 mm^3.

[4] = system: human PBMCs; test: Cytokine secretion by human PBMCs in vitro; format: cell-based; conditions: 48 hr, full titration peak/mean of triplicates; Study AB64785
Protocol: TLR ligands such as E. coli LPS, ds E. coli DNA, E. coli peptidoglycan (PGN), Flagellin, R848, Polyinosinic-polycytidylic acid (poly I:C), and CpG oligonucleotide (ODN) were also assessed in these studies. Initial experiments were carried out with incubation for 24, 48 and 72 hours, as well as with and without immune cell activation with anti-CD3. […] In addition, maximal induction of secretion of most cytokines and chemokines occurred after 48 hours. […] Essentially all cytokines and chemokines participate in activation of innate and/or adaptive (including anti-tumor and anti-viral) immune pathways, but can also induce significant toxicity if expressed in the wrong place, at the wrong time, for too long, or at an inappropriately high level.

[5] = system: Ramos NHL xenograft; test: s.c. human Ramos NHL xenograft in CB17/SCID mice; set-up: species or system mouse; conditions: in vivo
Protocol: This was tested with the human Ramos NHL xenograft model in SCID mice, which lack B and T cells.
Maximum transient weight loss for all non-indomethacin groups was generally in the 5% to 10% range. […] However, cure of at least some percentage of the mice is possible with the 3-way combination as a repeat produced 2/4 durable regressions in mice.
The 5 tumor-regressed mice were re-challenged with fresh Ramos tumor cells (opposite flank from first challenge) on Day 74. Only 2/5 tumors grew out, compared to 5/5 with naïve mice challenged with the same fresh tumor cells (FIG. 26). […] This has been reported previously with a small number of other agents, and is considered to be very difficult to achieve. Tumor regression with immunological memory via the innate immune system alone is very rare in preclinical models, but consistent with a multiple TLR agonist mechanism.

[6] = system: CT26 tumors; test: s.c. established CT26 tumors, Decoy with LDC; format: in vivo, mouse; conditions: Decoy alone 6.0×10^8; LDC 20 mg/kg i.p.; combination 3×10^8 Decoy + LDC
From the text: LDC alone produced a 57% ILS, which was statistically significant.

[7] = system: CT26.WT colorectal carcinoma; test: s.c. CT26.WT, Decoy (DB104) with cyclophosphamide (CTX); format: in vivo, mouse; conditions: vs untreated mice; Decoy single agent all doses (p<0.05); CTX both schedules
Protocol: Mouse CT26.WT colorectal carcinoma cells were implanted (injected) into the right flank of BALB/c mice. Animals were randomized and treatments were initiated (Starting Day=SD) with a mean group tumor weight of 75 to 79 mg. […] A group of animals that received no treatment was used as the control.

[8] = system: A20 non-Hodgkin's lymphoma; test: s.c. A20 lymphoma, Decoy dose and regimen with LDC; format: in vivo, mouse; conditions: LDC alone
Protocol: A group of untreated animals was used as the control. LDC alone was also tested. Treatment was initiated on Day 13 when the average tumor size was 158 mm^3.

[9] = system: A20 non-Hodgkin's lymphoma; test: s.c. A20 lymphoma, repeat and immune cell depletion; format: in vivo, mouse; conditions: 212 mm^3 tumors; two weeks of treatment
Protocol: A group of untreated animals was used as the control. Treatment was started when the average tumor size was 212 mm^3. […] Combination with LDC produced 12% transient weight loss in the first week and 13.6% transient weight loss in the second week.
Tumor implantation was carried out during the depletion regimen. […] Extra mice in each group were sacrificed at the time of initiation of treatment in order to verify immune cell depletion. […] The positive control included 2 groups of 6 mice each (one group received indomethacin), with 10/12 CRs/regressions (6/6 regressions without indomethacin and 4/6 regressions with added indomethacin). […] Thus, in addition to immune activation associated with innate and adaptive immune cells, LPS provides a key bridging activity between the innate and adaptive immune systems.

[10] = system: healthy human volunteers; conditions: purified LPS, over 1,000 healthy human volunteers; cited from earlier work
[11] = system: hepatitis B virus (HBV); test: AAV-HBV mouse model of chronic HBV infection, first study; format: in vivo; conditions: for HBV replication (measured in blood): 5 weeks of dosing
Protocol: (§1) The anti-hepatitis B virus (HBV) efficacy of Decoy was evaluated in two studies. A standard pre-clinical model was used in which the human HBV genome is inserted in an adeno-associated virus (AAV). This hybrid construct is able to infect mouse hepatocytes, producing a chronic HBV-like infection with many of the hallmarks of human HBV infection, including high levels of HBV replication in liver and blood and production of HBe and HBs antigen (HBeAg and HBsAg). AAV-HBV virus is administered to mice and then blood titers of HBV DNA are monitored. Significant and relatively stable blood levels of HBV appear within 28-31 days, at which point treatment is initiated. Indomethacin was administered with Decoy in many groups in the first study, but not in the second study.
In the first study, Decoy (two different doses) was tested in combination with indomethacin and also in combination with the clinical standard of care, Entecavir (ETV). ETV and indomethacin were also tested as single agents (first study). […] In addition, ETV and mIFN-alpha were tested as single agents and in combination with Decoy (one dose).
Decoy-induced body weight loss was mild, transient (6% for […] in first week of treatment) and tapered off after the first week of treatment (tolerance phenomenon) (FIG. 28).

[12] = system: hepatitis B virus (HBV); test: AAV-HBV mouse model of chronic HBV infection, second study; format: in vivo
Protocol: as §1
A group of untreated animals was included in the study. All treatment was well tolerated in AAV-HB V-infected mice.
No inhibition of other infection hallmarks was observed by mIFN-alpha.

[13] = system: H22 hepatocellular carcinoma; test: s.c. H22 hepatocellular carcinoma, first study (194 mm^3); format: in vivo; conditions: single agents; Decoy QD×2 weekly 6 weeks
Protocol: Treatment was initiated when the average tumor size was 194 mm^3. […] Indomethacin was administered at 10 μg/mL, p.o., ad libitum daily in drinking water×6 weeks (alone and in combinations) and anti-PD-1 was administered at 10 mg/kg, i.p., BIW×2 weeks (alone and in combinations). A group of animals that received no treatment was used as the control in the study.

[14] = system: H22 hepatocellular carcinoma; test: s.c. H22 hepatocellular carcinoma, second study (E0776-U1802); format: in vivo
Protocol: Indomethacin was tested at 10 μg/mL in drinking water, p.o. ad libitum daily for either 2 or 6 weeks. Anti-PD-1 was tested at 10 mg/kg, i.p. 2× per week for 2 weeks. Dosing was started when the average tumor size was 184 mm^3. A group of untreated animals was used as the control.

[15] = system: H22 tumors; test: s.c. H22 HCC, plasma cytokine/chemokine induction and one-week treatment; format: in vivo, mouse
Protocol: Female BALB/c mice with ˜200 mm^3 H22 tumors were randomized on Day-0 into 8 groups, each containing 3 sub-groups. All of the possible treatment approaches or combinations, including no treatment, were carried out. Mice from each of two subgroups from each group (5 mice per sub-group) were sacrificed 6 and 24 hours after no treatment, single, 2-way, or 3-way combination treatment. In the case of 2way and 3-way combination treatment, mice were sacrificed 6 and 24 hours after the first treatment instance of the second or third component of the combination. Plasma was prepared from each mouse and 32-plex ELISA-based cytokine/chemokine analysis was carried out. A third sub-group from each group (6 mice each) was treated for one week, with tumor volumes measured at randomization, once during the week and at the end of one week of treatment. Mice were sacrificed, then tumors were harvested and RNA was isolated. The 48 RNA samples were analyzed for expression of 770 genes involved in immune response pathways, using NanoString technology.
Indomethacin induced expression of only 2/32 cytokines/chemokines, and only at 6 hours after initiation of treatment. […] There was no increase in weight loss in any of the combination groups, relative to single agent treatment. […]

[16] = system: HIV-1; test: Chronic HIV humanized hu-mouse model; format: in vivo; conditions: 5 weeks of treatment

Molecule: Nc1ccn([C@@H]2O[C@H](CO)[C@@H](O)C2(F)F)c(=O)n1 [gemcitabine]
- median survival time [1]: significant increase in median survival
- survival [2]: increased survival
- single agent anti-tumor activity [3]: weak, but statistically significant
- weight loss [3]: 20%

Molecule: Polyinosinic-polycytidylic acid [Poly(I:C)]
- GM-CSF secretion by human PBMCs [4]: 0 pg/mL
- IFNγ secretion by human PBMCs [4]: 103 pg/mL
- IL-1β secretion by human PBMCs [4]: 22 pg/mL
- IL-6 secretion by human PBMCs [4]: 129 pg/mL
- IL-8 secretion by human PBMCs [4]: 1,452 pg/mL
- IL-10 secretion by human PBMCs [4]: 8 pg/mL
- IL-12p70 secretion by human PBMCs [4]: 18 pg/mL
- TNFα secretion by human PBMCs [4]: 208 pg/mL

Molecule: rituximab
- single agent anti-tumor activity [5]: inhibited or delayed

Molecule: O=P1(N(CCCl)CCCl)NCCCO1 (stereo not drawn) [LDC, cyclophosphamide]
- increased lifespan (% ILS) [6]: 57%
- inhibition of tumor growth [7]: significant tumor growth inhibition
- single agent anti-tumor activity [3]: weak, but statistically significant
- tumor regression (group of 4) [8]: one
- regressions [9]: without producing any regressions

Molecule: lipopolysaccharide [LPS]
- GM-CSF secretion by human PBMCs [4]: 175 pg/mL
- IFNγ secretion by human PBMCs [4]: 29,416 pg/mL
- IL-1β secretion by human PBMCs [4]: 4,631 pg/mL
- IL-6 secretion by human PBMCs [4]: 54,174 pg/mL
- IL-8 secretion by human PBMCs [4]: 143,459 pg/mL
- IL-10 secretion by human PBMCs [4]: 3,542 pg/mL
- IL-12p70 secretion by human PBMCs [4]: 109 pg/mL
- TNFα secretion by human PBMCs [4]: 24,944 pg/mL
- highest dose determined to be well-tolerated after IV administration [10]: 4 ng/kg

Molecule: C=C1[C@H](CO)[C@@H](O)C[C@@H]1n1cnc2c(=O)[nH]c(N)nc21 [ETV, Entecavir]
- HBV replication (measured in blood) [11]: significantly inhibited HBV replication
- HBeAg and HBsAg in blood ([11]; mouse, in vivo): not to reduce or inhibit production of HBeAg or HBsAg
- inhibition of HBcAg in the liver ([11]; mouse, in vivo): not
- reduction of HBV in the liver ([11]; mouse, in vivo): not
- plasma HBV DNA levels ([12]; Day 31 to Day 151, no indomethacin): reduced plasma HBV DNA levels
- HBV DNA and HBeAg levels in mouse liver at termination ([12]; mouse, in vivo): not
- plasma HBsAg and HBeAg levels ([12]; mouse, in vivo): not

Molecule: COc1ccc2c(c1)c(CC(=O)O)c(C)n2C(=O)c1ccc(Cl)cc1 [indomethacin]
- survival [2]: did not increase survival significantly
- increase in life-span (% ILS) [13]: 30%
- regressions ([14]; 6 week indomethacin treatment): did not see any regressions
- regressions (6 animals per group) ([14]; indomethacin 2 weeks, indomethacin 2 weeks+anti-PD-1, Decoy QD×2 6 weeks+indomethacin 6 weeks): one
- lifespan (ILS) ([14]; single agents, indomethacin 2 weeks and 6 weeks): statistically significant increase in lifespan
- Transient weight loss [3]: not seen
- plasma cytokines/chemokines induced (of 32) ([15]; 6 or 24 hours after treatment): 2/32
- Tumor growth inhibition relative to no treatment ([15]; after one week of treatment): 17%
- single agent anti-tumor activity [5]: did not produce single agent activity
- HBV replication (measured in blood) [11]: did not inhibit HBV replication
- HIV viral load in plasma [16]: inhibited HIV viral load
